This is an account of results in patent publication US8722681B2, “N-sulfonyl thiazolylpiperazine derivatives and related N-sulfonyl heterocyclic derivatives for the treatment of neuro degenerative diseases” (NV reMYND, priority 2007, dated 2014).

Molecules are shown by their SMILES.

The test has as its system M17-SYNwt cells. As to the kind of experiment: α-synuclein cytotoxicity assay (LDH leakage from paraquat-treated M17-SYNwt cells). The settings on record: for EC50: Homo sapiens, M17-SYNwt cells, paraquat 32 mM, 40 hours, LDH activity. It is filed as cell-based, human. An excerpt:
An α-synuclein expression plasmid was constructed by sub-cloning the NcoI/XhoI fragment from 212T-SYN(WT) (Griffioen et al., Biochem Biophys Acta (2006) 1762(3):312-318) containing the cDNA of human wild type α-synuclein correspondingly into a standard mammalian expression vector pcDNA3.1 resulting in plasmid pcDNA3.1-SYNwt. Plasmid pcDNA3.1 and pcDNA3.1-SYNwt were transfected to human neuroblastoma cells (ATCC No. CRL-2267) and independent clonal lines with the plasmids stably integrated into the genome were selected. […] Over-expression of α-synuclein in M17-SYNwt cell lines was confirmed by Western analysis.
Due to the high levels of α-synuclein M17-SYNwt cells are exquisitely sensitivity to paraquat, a well-known risk factor of synuclein-dependent neuronal degeneration. In degenerated or dead cells lactate dehydrogenase (LDH) is leaked out of the cells into the extracellular environment due to a loss of plasma-membrane integrity. This principle was used to determine cytotoxicity by quantifying the level of leaked LDH into the growth medium.
The detailed method for determining α-synuclein cytotoxicity was as follows: From appropriate precultures of M17 and M17-SYN cells were seeded at 50000 cells/cm^2 in Optimem Reduced Serum without phenol red (InVitrogen, Cat. 31985-047) supplemented with 5% fetal calf serum, 1 mM sodium pyruvate, 1×non-essential amino acids, 500 μg/ml G418 0.5×antibiotic/antimycotic. After 3 hours of incubation at 37° C./5% CO2 paraquat was added to the cells (final concentration of 32 mM), together with the test compound and the cells were further incubated for 40 hours. Subsequently, LDH activity was determined using Promega Cytotox 96 Non-Radioactive cytotoxicity assay, (Cat. G1780) according the supplier's instructions.
This α-synuclein expressing neuroblastoma cells made it possible to assess the ability of novel compounds to counteract α-synuclein cytotoxicity. […] Since this method monitors leaked LDH from degenerated or dead cells only non-toxic compounds will be identified as active inhibitors of α-synuclein-mediated cytotoxicity. Lack of toxicity is an important characteristic for compounds to be used as a medicament to patients in need. A compound was considered to be active in this test when it inhibits α-synuclein cytotoxicity by more than 25% relative to untreated M17-SYNwt cells at a concentration of 20 μg/mL or lower. In the experiments, the control group consisted of M17-SYNwt cells treated with DMSO, the untreated paraquat group consisted of M17-SYNwt cells treated with paraquat and DMSO, and the treated paraquat group consisted of M17-SYNwt cells treated with paraquat and the test compound dissolved in DMSO.
Percent inhibition was calculated as the synuclein toxicity inhibition by the compound in treated paraquat cells, relative to the synuclein cytotoxicity in untreated paraquat cells.
The compounds from table 1 were screened for activity using the α-synuclein cytotoxicity assay as described above. Dose responses were carried out on all compounds found to be active (10 point curves in duplicate).

Where [1] appears, read: Table 2, inhibition of synuclein toxicity at most effective concentration relative to untreated paraquat cells.

Under “Table 1”, `COc1ccc(S(=O)(=O)N2CCN(c3nc(-c4ccc(F)cc4)cs3)CC2)cc1` [Compound 1, 1-[4-(4-fluorophenyl)-1,3-thiazol-2-yl]-4-[(4-methoxyphenyl)-sulfonyl]-piperazine] displayed an EC50 of 0.024 µM. In addition, the “% I (percentage inhibition)” value (Table 1, inhibition of synuclein toxicity at most effective concentration relative to untreated paraquat cells) was 100%.

Under “Table 2”, `COc1cccc(Cc2csc(N3CCN(S(=O)(=O)c4ccc(NC(C)=O)cc4)CC3)n2)c1` [Compound 27, N-(4-(4-(4-(3-methoxybenzyl)thiazol-2-yl)piperazin-1-ylsulfonyl)phenyl)acetamide] returned an EC50 of 0.25 µM. In addition, under setting [1], the “% inh. (percentage inhibition)” value was 91%.

As to `O=S(=O)(N1CCCC1)N1CCN(c2nc(-c3ccccc3)cs2)CC1` [Compound 61, 1-(4-phenylthiazol-2-yl)-4-(pyrrolidin-1-ylsulfonyl)piperazine], a half-maximal response (Table 2) (EC50) required 1.74 µM. Moreover, the “% inh. (percentage inhibition)” value under setting [1] is given as 127%.

`COc1ccc(S(=O)(=O)N2CCN(c3nc(Cc4cccs4)cs3)CC2)cc1` [Compound 10, 1-(4-methoxyphenylsulfonyl)-4-(4-(thiophen-2-ylmethyl)thiazol-2-yl)piperazine] displayed an EC50 (Table 2) of 0.012 µM. In addition, the “% inh. (percentage inhibition)” value under setting [1] came to 93%.

In turn, `Cc1ccc(-c2csc(N3CCN(S(=O)(=O)N4CCCC4)CC3)n2)cc1` [Compound 62, 1-(4-(4-methylphenyl)thiazol-2-yl)-4-(pyrrolidin-1-ylsulfonyl)piperazine] registered an EC50 (Table 2) of 1.93 µM. Moreover, the “% inh. (percentage inhibition)” value under setting [1] came out at 112%.

On to `COc1cc(F)ccc1S(=O)(=O)N1CCN(c2nc(-c3ccc(C)cc3)cs2)CC1` [Compound 51, 1-(4-fluoro-2-methoxyphenylsulfonyl)-4-(4-(4-methylphenyl)thiazol-2-yl)piperazine], for which, under “Table 2”, the EC50 was 2.5 µM. Besides, under setting [1], the “% inh. (percentage inhibition)” value is listed as 88%.

Consider `O=S(=O)(c1cccs1)N1CCN(c2nc(-c3ccc(Cl)cc3)cs2)CC1` [Compound 58, 1-(thiophen-2-ylsulfonyl)-4-(4-(4-chlorophenyl)thiazol-2-yl)piperazine], for which the midpoint of the response (Table 2), the EC50, lay at 3.75 µM. Also, under setting [1], the “% inh. (percentage inhibition)” value came to 99%.

`CC(=O)NCCc1ccc(S(=O)(=O)N2CCN(c3nc(-c4ccccc4)cs3)CC2)cc1` [Compound 34, N-(4-(4-(4-phenylthiazol-2-yl)piperazin-1-ylsulfonyl)phenethyl)acetamide] returned a concentration for a half-maximal effect (EC50) (Table 2) of 3.09 µM. The “% inh. (percentage inhibition)” value under setting [1] amounted to 46%.

For the compound `COc1ccc(S(=O)(=O)N2CCN(c3nc(-c4ccncc4)cs3)CC2)cc1` [Compound 49, 1-(4-methoxyphenylsulfonyl)-4-(4-(pyridin-4-yl)thiazol-2-yl)piperazine], a half-maximal response (Table 2) (EC50) required 0.075 µM. Moreover, under setting [1], the “% inh. (percentage inhibition)” value amounted to 114%.

`COc1cccc(Cc2csc(N3CCN(S(=O)(=O)c4ccc5c(c4)OCO5)CC3)n2)c1` [Compound 19, 1-(4-(3-methoxybenzyl)thiazol-2-yl)-4-(benzo[d][1,3]dioxol-5-ylsulfonyl)piperazine]: the EC50 (Table 2) was found to be 0.251 µM. For the same compound, under setting [1], the “% inh. (percentage inhibition)” value was determined as 84%.

Compound `COc1cccc(Cc2csc(N3CCN(S(=O)(=O)c4cccc5c4ccn5C)CC3)n2)c1` [Compound 24, 4-(4-(4-(3-methoxybenzyl)thiazol-2-yl)piperazin-1-ylsulfonyl)-1-methyl-1H-indole] returned an EC50 (Table 2) of 1.17 µM. Besides, the “% inh. (percentage inhibition)” value under setting [1] worked out at 82%.

Take `COC(=O)COc1ccc(S(=O)(=O)N2CCN(c3nc(-c4ccc(C)cc4)cs3)CC2)cc1` [Compound 33, Methyl 2-(4-(4-(4-p-tolylthiazol-2-yl)piperazin-1-ylsulfonyl)phenoxy)acetate]: a half-maximal effect (Table 2) (EC50) was put at 0.0516 µM. Also, the “% inh. (percentage inhibition)” value under setting [1] turned out to be 21%.

With `COc1ccc(-c2csc(N3CCN(S(=O)(=O)N4CCCC4)CC3)n2)cc1` [Compound 63, 1-(4-(4-methoxyphenyl)thiazol-2-yl)-4-(pyrrolidin-1-ylsulfonyl)piperazine], the EC50 (Table 2) is 3.18 µM. Also, the “% inh. (percentage inhibition)” value under setting [1] came out at 69%.
